Measurements published in patent publication US20070021419A1, “2-Aminophenyl-4-phenylpyrimidines as kinase inhibitors” (Cyclacel Limited, priority 2003, published 2007).

Tests used:
CDK1/cyclin B = CDK1/cyclin B (Homo sapiens, UniProt P06493); assay: Kinase assay, radioactive phosphate incorporation, CDK1/cyclin B; assay type: biochemical; settings: 100 μM ATP, 30° C.; read-out: Kinase inhibition IC50 CDK1/cyclin B
Method: (§1) The compounds from the examples above were investigated for their ability to inhibit the enzymatic activity of various protein kinases. This was achieved by measurement of incorporation of radioactive phosphate from ATP into appropriate polypeptide substrates. Recombinant protein kinases and kinase complexes were produced or obtained commercially. Assays were performed using 96-well plates and appropriate assay buffers (typically 25 mM β-glycerophosphate, 20 mM MOPS, 5 MM EGTA, 1 mM DTT, 1 mM Na3VO3, pH 7.4), into which were added 2-4 μg of active enzyme with appropriate substrates. The reactions were initiated by addition of Mg/ATP mix (15 mM MgCl2+100 μM ATP with 30-50 kBq per well of [γ-^32P]-ATP) and mixtures incubated as required at 30° C. Reactions were stopped on ice, followed by filtration through p81 filterplates or GF/C filterplates (Whatman Polyfiltronics, Kent, UK). After washing 3 times with 75 mM aq orthophosphoric acid, plates were dried, scintillant added and incorporated radioactivity measured in a scintillation counter (TopCount, Packard Instruments, Pangbourne, Berks, UK). Compounds for kinase assay were made up as 10 mM stocks in DMSO and diluted into 10% DMSO in assay buffer.

CDK2/cyclin A = CDK2/cyclin A (Homo sapiens, UniProt P24941); assay: Kinase assay, radioactive phosphate incorporation, CDK2/cyclin A; assay type: biochemical; settings: 100 μM ATP, 30° C.; read-out: Kinase inhibition IC50 CDK2/cyclin A
Method: as §1

CDK2/cyclin E = CDK2/cyclin E (Homo sapiens, UniProt P24941); assay: Kinase assay, radioactive phosphate incorporation, CDK2/cyclin E; assay type: biochemical; settings: 100 μM ATP, 30° C.; read-out: Kinase inhibition IC50 CDK2/cyclin E
Method: as §1

CDK4/cyclin D1 = CDK4/cyclin D1 (Homo sapiens, UniProt P11802); assay: Kinase assay, radioactive phosphate incorporation, CDK4/cyclin D1; assay type: biochemical; settings: 100 μM ATP, 30° C.; read-out: Kinase inhibition IC50 CDK4/cyclin D1
Method: as §1

CDK7/cyclin H = CDK7/cyclin H (Homo sapiens, UniProt P50613); assay: Kinase assay, radioactive phosphate incorporation, CDK7/cyclin H; assay type: biochemical; settings: 100 μM ATP, 30° C.; read-out: Kinase inhibition IC50 CDK7/cyclin H
Method: as §1

CDK9/cyclin T1 = CDK9/cyclin T1 (Homo sapiens, UniProt P50750); assay: Kinase assay, radioactive phosphate incorporation, CDK9/cyclin T1; assay type: biochemical; settings: 100 μM ATP, 30° C.; read-out: Kinase inhibition IC50 CDK9/cyclin T1
Method: as §1

GSK3β = GSK3β (Homo sapiens, UniProt P49841); assay: Kinase assay, radioactive phosphate incorporation, GSK3β; assay type: biochemical; settings: 100 μM ATP, 30° C.; read-out: Kinase inhibition IC50 GSK3β
Method: as §1

A549 = assay: 72-h MTT cytotoxicity assay, A549; assay type: cell-based; settings: Homo sapiens, read-out: 72-h MTT IC50 A549, A549 cell line
Method: (§2) The compounds from the examples above were subjected to a standard cellular proliferation assay using human tumour cell lines obtained from the ATCC (American Type Culture Collection, 10801 University Boulevard, Manessas, Va. 20110-2209, USA). Standard 72-h MTT (thiazolyl blue; 3-[4,5-dimethylthiazol-2-yl]-2,5-diphenyltetrazolium bromide) assays were performed. In short: cells were seeded into 96-well plates according to doubling time and incubated overnight at 37° C. Test compounds were made up in DMSO and a 1/3 dilution series prepared in 100 μL cell media, added to cells (in triplicates) and incubated for 72 ho at 37° C. MTT was made up as a stock of 5 mg/mL in cell media and filter-sterilised. Media was removed from cells followed by a wash with 200 μL PBS. MTT solution was then added at 20 μL per well and incubated in the dark at 37° C. for 4 h. MTT solution was removed and cells again washed with 200 μL PBS. MTT dye was solubilised with 200 μL per well of DMSO with agitation.

HT29 = assay: 72-h MTT cytotoxicity assay, HT29; assay type: cell-based; settings: Homo sapiens, HT-29, read-out: 72-h MTT IC50 HT29, HT29 cell line
Method: as §2

Saos-2 = assay: 72-h MTT cytotoxicity assay, Saos-2; assay type: cell-based; settings: Homo sapiens, read-out: 72-h MTT IC50 Saos-2, Saos-2 cell line
Method: as §2

[1] = test system: transformed human cell lines (A549, HT29, Saos-2); assay: 72-h MTT cytotoxicity assay, average of cell lines; assay type: cell-based; settings: read-out: 72-h MTT IC50 Average, average of A549, HT29, Saos-2
Method: as §2

Chain of CDK4/cyclin D1 (P11802 whole entry, species assumed): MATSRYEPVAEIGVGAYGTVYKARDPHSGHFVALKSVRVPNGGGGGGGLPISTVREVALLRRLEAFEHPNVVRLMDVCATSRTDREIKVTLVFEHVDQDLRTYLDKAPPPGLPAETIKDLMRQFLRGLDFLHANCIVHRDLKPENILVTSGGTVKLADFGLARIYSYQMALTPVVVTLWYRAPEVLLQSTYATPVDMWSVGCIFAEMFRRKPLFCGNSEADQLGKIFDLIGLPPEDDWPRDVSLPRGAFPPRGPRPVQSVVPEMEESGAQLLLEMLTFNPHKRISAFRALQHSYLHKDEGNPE
Chain of CDK4/cyclin D1 (P24385 whole entry partner, species assumed): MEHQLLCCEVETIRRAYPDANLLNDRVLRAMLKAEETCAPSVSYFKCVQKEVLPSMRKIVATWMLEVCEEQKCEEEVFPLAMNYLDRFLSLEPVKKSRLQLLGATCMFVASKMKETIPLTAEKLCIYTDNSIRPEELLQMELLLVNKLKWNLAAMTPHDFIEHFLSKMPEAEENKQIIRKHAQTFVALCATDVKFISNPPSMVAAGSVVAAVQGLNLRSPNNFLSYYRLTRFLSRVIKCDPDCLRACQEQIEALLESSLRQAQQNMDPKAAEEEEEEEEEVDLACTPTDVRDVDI
Chain of CDK1/cyclin B (P06493 whole entry, species assumed): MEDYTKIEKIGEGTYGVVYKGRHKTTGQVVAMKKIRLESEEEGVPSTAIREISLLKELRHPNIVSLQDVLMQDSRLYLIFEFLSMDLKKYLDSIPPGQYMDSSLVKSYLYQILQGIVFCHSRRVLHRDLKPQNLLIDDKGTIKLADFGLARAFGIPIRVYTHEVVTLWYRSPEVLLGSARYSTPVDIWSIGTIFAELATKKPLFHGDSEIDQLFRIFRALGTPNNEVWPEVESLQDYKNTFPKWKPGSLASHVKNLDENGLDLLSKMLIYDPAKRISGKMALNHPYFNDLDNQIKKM
Chain of CDK1/cyclin B (P14635 whole entry partner, species assumed): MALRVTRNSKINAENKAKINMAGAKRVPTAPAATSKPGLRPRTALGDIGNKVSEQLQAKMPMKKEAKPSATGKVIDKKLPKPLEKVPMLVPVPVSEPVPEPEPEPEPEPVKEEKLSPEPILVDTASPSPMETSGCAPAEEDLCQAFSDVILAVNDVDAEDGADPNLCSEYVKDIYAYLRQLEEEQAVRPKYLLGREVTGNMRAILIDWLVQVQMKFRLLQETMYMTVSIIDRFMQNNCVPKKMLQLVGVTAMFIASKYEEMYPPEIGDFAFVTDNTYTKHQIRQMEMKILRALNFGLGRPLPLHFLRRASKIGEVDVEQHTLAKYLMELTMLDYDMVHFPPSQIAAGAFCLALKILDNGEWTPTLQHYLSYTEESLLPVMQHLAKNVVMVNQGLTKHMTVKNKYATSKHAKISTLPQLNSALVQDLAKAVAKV
Chain of CDK7/cyclin H (P50613 whole entry, species assumed): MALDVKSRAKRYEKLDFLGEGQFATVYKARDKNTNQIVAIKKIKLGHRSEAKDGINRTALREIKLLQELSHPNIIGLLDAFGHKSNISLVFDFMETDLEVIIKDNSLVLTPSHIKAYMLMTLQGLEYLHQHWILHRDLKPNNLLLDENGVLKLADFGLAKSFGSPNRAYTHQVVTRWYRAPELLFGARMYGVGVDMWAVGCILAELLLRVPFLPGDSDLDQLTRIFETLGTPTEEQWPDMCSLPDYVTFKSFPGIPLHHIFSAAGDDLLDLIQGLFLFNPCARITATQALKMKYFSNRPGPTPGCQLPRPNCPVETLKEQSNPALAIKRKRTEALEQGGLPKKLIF
Chain of CDK7/cyclin H (P51946 whole entry partner, species assumed): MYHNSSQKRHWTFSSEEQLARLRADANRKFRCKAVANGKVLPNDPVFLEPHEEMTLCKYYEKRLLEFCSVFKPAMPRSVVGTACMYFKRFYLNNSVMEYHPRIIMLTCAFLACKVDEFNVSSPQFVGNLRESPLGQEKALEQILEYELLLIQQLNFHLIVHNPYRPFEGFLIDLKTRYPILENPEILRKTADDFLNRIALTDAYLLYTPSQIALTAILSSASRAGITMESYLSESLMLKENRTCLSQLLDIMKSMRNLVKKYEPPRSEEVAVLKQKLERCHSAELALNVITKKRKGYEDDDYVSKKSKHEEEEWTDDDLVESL
Chain of GSK3β (P49841 whole entry, species assumed): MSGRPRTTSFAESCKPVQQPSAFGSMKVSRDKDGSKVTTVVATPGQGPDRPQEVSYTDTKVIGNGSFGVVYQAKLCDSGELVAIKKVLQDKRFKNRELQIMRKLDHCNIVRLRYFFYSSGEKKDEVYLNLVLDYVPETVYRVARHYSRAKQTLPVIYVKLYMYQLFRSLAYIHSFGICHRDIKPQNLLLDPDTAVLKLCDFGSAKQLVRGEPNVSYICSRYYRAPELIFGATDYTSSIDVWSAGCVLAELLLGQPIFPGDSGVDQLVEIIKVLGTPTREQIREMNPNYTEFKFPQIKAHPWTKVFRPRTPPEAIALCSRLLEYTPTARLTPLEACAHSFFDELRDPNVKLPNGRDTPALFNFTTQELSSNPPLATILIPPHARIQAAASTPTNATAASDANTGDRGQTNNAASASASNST
Chain of CDK9/cyclin T1 (P50750 whole entry, species assumed): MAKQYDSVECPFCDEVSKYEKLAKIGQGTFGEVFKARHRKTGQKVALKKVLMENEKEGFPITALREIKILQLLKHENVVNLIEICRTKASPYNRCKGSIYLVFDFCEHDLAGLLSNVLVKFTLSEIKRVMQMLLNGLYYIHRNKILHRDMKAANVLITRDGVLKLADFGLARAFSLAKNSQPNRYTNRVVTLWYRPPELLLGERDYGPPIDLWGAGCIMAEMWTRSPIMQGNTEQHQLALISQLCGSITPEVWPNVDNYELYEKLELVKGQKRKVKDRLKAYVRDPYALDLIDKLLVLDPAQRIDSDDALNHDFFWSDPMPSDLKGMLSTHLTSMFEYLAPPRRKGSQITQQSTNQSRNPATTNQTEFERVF
Chain of CDK9/cyclin T1 (O60563 whole entry partner, species assumed): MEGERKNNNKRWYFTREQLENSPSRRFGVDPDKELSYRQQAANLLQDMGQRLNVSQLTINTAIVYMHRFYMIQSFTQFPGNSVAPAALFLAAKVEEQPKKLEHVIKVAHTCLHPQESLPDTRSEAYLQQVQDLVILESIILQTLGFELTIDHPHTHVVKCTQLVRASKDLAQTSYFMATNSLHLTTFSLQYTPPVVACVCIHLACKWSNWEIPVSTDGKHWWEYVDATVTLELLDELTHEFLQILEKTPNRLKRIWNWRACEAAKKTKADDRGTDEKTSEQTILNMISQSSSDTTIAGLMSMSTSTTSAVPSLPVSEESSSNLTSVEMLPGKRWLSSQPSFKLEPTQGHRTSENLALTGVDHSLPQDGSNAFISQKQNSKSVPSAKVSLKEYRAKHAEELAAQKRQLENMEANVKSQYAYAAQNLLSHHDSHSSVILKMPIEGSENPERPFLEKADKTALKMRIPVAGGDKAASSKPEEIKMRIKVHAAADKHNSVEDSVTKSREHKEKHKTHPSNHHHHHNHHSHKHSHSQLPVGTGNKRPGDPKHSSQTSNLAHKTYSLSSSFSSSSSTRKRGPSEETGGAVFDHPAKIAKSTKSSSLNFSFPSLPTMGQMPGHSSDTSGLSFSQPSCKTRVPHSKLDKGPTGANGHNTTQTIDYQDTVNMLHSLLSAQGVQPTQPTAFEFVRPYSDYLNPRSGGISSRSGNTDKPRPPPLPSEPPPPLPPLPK

Structure (SMILES) | IC50 (CDK1/cyclin B) [µM] | IC50 (CDK2/cyclin A) [µM] | IC50 (CDK2/cyclin E) [µM] | IC50 (CDK4/cyclin D1) [µM] | IC50 (CDK7/cyclin H) [µM] | IC50 (CDK9/cyclin T1) [µM] | IC50 (GSK3β) [µM] | IC50 (A549) [µM] | IC50 (HT29) [µM] | IC50 (Saos-2) [µM] | IC50 [1] [µM]
Oc1ccc(Nc2nccc(-c3cccc(Cl)c3)n2)cc1 [Compound 17, 4-[4-(3-Chloro-phenyl)-pyrimidin-2-ylamino]-phenol] | 5.3 | 2.1 | 0.39 |  |  |  |  |  |  |  | 
CCN(C(C)=O)c1cccc(-c2ccnc(Nc3ccc(OC)cc3)n2)c1 [Compound 23, N-Ethyl-N-{3-[2-(4-methoxy-phenylamino)-pyrimidin-4-yl]-phenyl}-acetamide] | 3.6 | 1.2 | 1.1 | 7.6 | 4.3 | 0.4 | 0.12 | 12.9 | 3.4 | 23 | 13.1 ± 9.8
COc1ccc(Nc2nccc(-c3cccc(Cn4ccnc4)c3)n2)cn1 [Compound 59, [4-(3-Imidazol-1-ylmethyl-phenyl)-pyrimidin-2-yl]-(6-methoxy-pyridin-3-yl)-amine] | 0.12 | 0.06 | 1.3 | 3.8 | 0.5 | 0.04 | 0.07 |  |  |  | 
O=[N+]([O-])c1cccc(Nc2nccc(-c3cccc(CN4CCCCC4CO)c3)n2)c1 (stereo not drawn) [Compound 79, (1-{3-[2-(3-Nitro-phenylamino)-pyrimidin-4-yl]-benzyl}-piperidin-2-yl)-methanol] | 0.15 | 0.15 | < 0.001 | 0.54 | 0.05 | 0.01 | 0.02 | 0.33 | 0.2 | 0.62 | 0.4 ± 0.2
O=[N+]([O-])c1cccc(Nc2nccc(-c3cccc(CN4CCOCC4)c3)n2)c1 [Compound 39, [4-(3-Morpholin-4-ylmethyl-phenyl)-pyrimidin-2-yl]-(3-nitro-phenyl)-amine] | 0.35 | 2.4 | 0.12 | 2.41 | 0.038 | 0.11 | 0.15 | 6.8 | 2 | 8 | 5.6 ± 3.2
CCNc1cccc(-c2ccnc(Nc3ccc(OC)cc3)n2)c1 [Compound 25, [4-(3-Ethylamino-phenyl)-pyrimidin-2-yl]-(4-methoxy-phenyl)-amine] | 0.17 | 0.03 | 0.039 | 0.17 | 0.94 | 0.005 | 0.14 |  |  |  | 
Cc1ccc(Nc2nccc(-c3cccc(CN4CCCCC4CO)c3)n2)cc1[N+](=O)[O-] (stereo not drawn) [Compound 108, (1-{3-[2-(4-Methyl-3-nitro-phenylamino)-pyrimidin-4-yl]-benzyl}-piperidin-2-yl)-methanol] | 1.1 | 0.44 | 0.06 | 1.7 | 0.03 | < 0.001 | 0.02 |  |  |  | 
Oc1ccc(Nc2nccc(-c3ccc(Cl)c(Cl)c3)n2)cc1 [Compound 21, 4-[4-(3,4-Dichloro-phenyl)-pyrimidin-2-ylamino]-phenol] | 29 |  | 3.5 | 29 |  | 5.4 |  | 11.7 | 15.1 | 41.5 | 22.8 ± 16.3
CN(C)Cc1cccc(-c2ccnc(Nc3cccc([N+](=O)[O-])c3)n2)c1 [Compound 71, [4-(3-Dimethylaminomethyl-phenyl)-pyrimidin-2-yl]-(3-nitro-phenyl)-amine] | 0.01 | 0.03 | 0.01 | 0.2 | 0.03 | 0.003 | 0.03 |  |  |  | 
O=[N+]([O-])c1cccc(Nc2nccc(-c3cccc(CNCc4ccccc4)c3)n2)c1 [Compound 27, {4-[3-(Benzylamino-methyl)-phenyl]-pyrimidin-2-yl}-(3-nitro-phenyl)-amine] |  | 6.5 | 0.57 | 16 | 6 | 2 | 0.18 | 14.1 | 4.9 | 43.8 | 20.9 ± 20.3

Further molecules by falling IC50 (CDK2/cyclin E), results first:

IC50 (CDK1/cyclin B) [µM] | IC50 (CDK2/cyclin A) [µM] | IC50 (CDK2/cyclin E) [µM] | IC50 (CDK4/cyclin D1) [µM] | IC50 (CDK7/cyclin H) [µM] | IC50 (CDK9/cyclin T1) [µM] | IC50 (GSK3β) [µM] | Structure (SMILES) | IC50 (A549) [µM] | IC50 (HT29) [µM] | IC50 (Saos-2) [µM] | IC50 [1] [µM]
3.9 |  | 6.1 | 20 |  |  | 1.1 | CN(C)c1ccc(Nc2nccc(-c3ccc(Cl)c(Cl)c3)n2)cc1 [Compound 20, N-[4-(3,4-Dichloro-phenyl)-pyrimidin-2-yl]-N′,N′-dimethyl-benzene-1,4-diamine] | 35.5 | 35.8 | 24.7 | 32 ± 6.3
11 |  | 3.2 | 2 | 1.1 | 0.22 | 0.087 | COc1ccc(Nc2nccc(-c3cccc(Cn4cncn4)c3)n2)cc1 [Compound 42, (4-Methoxy-phenyl)-[4-(3-[1,2,4]triazol-1-ylmethyl-phenyl)-pyrimidin-2-yl]-amine] | 10.6 | 6.7 | 25.8 | 14.4 ± 10.1
5.5 | 3.1 | 1.1 |  |  |  |  | Oc1cccc(Nc2nccc(-c3cccc(Cl)c3)n2)c1 [Compound 18, 3-[4-(3-Chloro-phenyl)-pyrimidin-2-ylamino]-phenol] |  |  |  | 
0.27 |  | 0.42 |  | 0.88 | 1.6 | 0.005 | CS(=O)(=O)NCc1cccc(-c2ccnc(Nc3cccc([N+](=O)[O-])c3)n2)c1 [Compound 40, N-{3-[2-(3-Nitro-phenylamino)-pyrimidin-4-yl]-benzyl}-methanesulfonamide] | 1.6 | 1.2 | 4.3 | 2.4 ± 1.7
3.9 | 3.4 | 0.35 | 1.1 | 2.5 | 0.028 | 0.051 | CCN(Cc1cccc(-c2ccnc(Nc3ccc(OC)nc3)n2)c1)C(C)C [Compound 53, (4-{3-[(Ethyl-isopropyl-amino)-methyl]-phenyl}-pyrimidin-2-yl)-(6-methoxy-pyridin-3-yl)-amine] | 2.2 | 0.85 | 3.2 | 2.1 ± 1.2
1.2 | 0.58 | 0.06 | 3.4 | 0.07 | 0.002 | 0.02 | O=[N+]([O-])c1cccc(Nc2nccc(-c3cccc(CN4CCCC(CCO)C4)c3)n2)c1 (stereo not drawn) [Compound 100, 2-(1-{3-[2-(3-Nitro-phenylamino)-pyrimidin-4-yl]-benzyl}-piperidin-3-yl)-ethanol] | 0.56 | 0.64 | 1.3 | 0.8 ± 0.4
1.3 | 0.13 | 0.033 |  | 20 | 0.059 | 0.04 | CCNc1cccc(-c2ccnc(Nc3ccc([N+](=O)[O-])cc3)n2)c1 [Compound 26, [4-(3-Ethylamino-phenyl)-pyrimidin-2-yl]-(4-nitro-phenyl)-amine] | 1.7 | 1.2 | 1.1 | 1.3 ± 0.3
